Assay type in all cases: in vivo, human
Experiment [1] relates to glucose stimulated insulin secretion. Put plainly: Intravenous glucose tolerance test (IVGTT), SAD. The method, then: The results from the IVGTT will help inform selection of the single dose that will be used in SAD 1b and SAD 1c and also to inform the doses used in the MAD.
A summary of the procedure is as follows: Collect pre-IV bolus blood samples for measurement of PG, insulin, and C-peptide. At 1 hour after study drug dosing/Time 60 (±30 minutes) or nominal time, administer an IV bolus of glucose at 300 mg/kg in 20% solution, within 60 seconds (use the most recent body weight measurement for glucose dose). Collect post-IV bolus blood samples for measurement of PG, insulin, and C-peptide.

In experiment [2] the test system is incretin-induced insulin secretion. Put plainly: Mixed meal tolerance test (MMTT), MAD. Conditions: Day 6. The method, then:
An MMTT will be conducted during the MAD study to assess the impact of Compound 1 on incretin-induced insulin secretion. This will be conducted at baseline (before study drug dosing) in the MAD and at Day 6 at which Compound 1 is predicted to be at steady state.
The purpose of the MMTT is to evaluate the effect of Compound 1 on plasma insulin in response to multiple fuel sources (protein, fat) and to evaluate the impact on incretin-induced insulin secretion. Subjects are to fast at least 10 hours overnight until ingestion of the mixed meal (which is to occur approximately 4 hours after study drug dosing), and then restrict further food intake until the end of the MMTT.
Start the MMTT (i.e., drink the mixed meal) on Day −1 and Day 6 at 4 hours (±30 minutes) post-study drug dosing (i.e., Time 240 minutes) or at nominal time. The total duration of the MMTT will be approximately 3.5 hours from when the first pre-drink blood sample is collected until the last MMTT blood sample is collected. The subject is to be in the supine position during the MMTT, except while consuming the mixed meal. The procedure will be as follows:
Collect pre-drink fasting blood samples for measurement of PG, insulin, C-peptide, glucagon, GIP, and GLP-1 at the timepoints specified in (SOA).
At 4 hours after study drug dosing/Time 240 minutes (or nominal time), the subject is to drink 400 mL (2×200-mL bottles) Resource® Energy (Nestlé Health Science) drink (mixed meal) within ≤10 minutes.
Collect post-drink blood samples for measurement of PG, insulin, C-peptide, glucagon, and GLP-1 at the timepoints specified in (SOA). The subject is to not eat or drink (except for water) until the last MMTT blood sample is collected.

Experiment [3] can be described thus: Fasting glucose, insulin and C-peptide, MAD. Particulars: 30-120 mg QD for 10 days. From the text:
Patients with congenital HI have fasting hypoglycemia due to excess endogenous insulin secretion. Metabolic biomarkers including glucose, insulin, C-peptide, and βhydroxybutyrate will be collected throughout both the SAD and MAD to assess the effect of single and multiple doses of Compound 1.

In experiment [4] the test system is sulfonylurea-induced hyperinsulinism. In words: Sulfonylurea (glibenclamide) challenge and euglycemic clamp, MAD. As for the experimental part: MAD/Part 2: multiple ascending dose, randomized, placebo-controlled, double-blind; up to 5 cohorts, n=9/cohort; subjects in MAD will receive Compound 1 or the placebo. Subjects will undergo a mixed meal tolerance test (MMTT) and an SU challenge and euglycemic clamp procedure. The doses will not exceed the doses in the SAD. Doses will escalate from 30 mg to 120 mg.
In SAD 1b and the MAD, subjects will undergo an SU challenge in the setting of a euglycemic clamp procedure. Sulfonylurea drugs act to close KATP channel of the pancreatic β-cell, stimulating endogenous insulin secretion. Given that the majority (50%) of patients with congenital HI harbor a mutation in the KATP channel, the SU challenge models this genetic form of HI in healthy volunteers. Intravenous glucose will be used during the euglycemic clamp to maintain glucose within a target range. In the presence of an SU, the amount of intravenous (IV) glucose required to maintain a target glucose will increase, similar to patients with congenital HI who require supplemental glucose. The SU challenge cohorts in SAD 1b will assess the ability of a single dose of Compound 1 to reduce or prevent SU-induced glucose lowering as measured by reduced IV glucose infusion (reduced glucose “support”). IV glucose requirements will be assessed as a glucose infusion rate, or GIR (mg dextrose/kg body weight/minute). In the MAD, the durability of the Compound 1 effect will be measured by assessing the GIR required to maintain euglycemia during the SU challenge after 10 days of Compound 1 dosing compared to the baseline SU challenge in the absence (predose) of Compound 1.
Glibenclamide will be used for SU-induced hypoglycemia. Based on the available dose-response data in healthy volunteers, 5 mg of glibenclamide will be orally administered to healthy volunteers in selected single- and multi-dose cohorts. The risk of hypoglycemia due to overdose is negligible because continuous glucose monitoring by a clamp device will be performed for each subject and IV infusion of glucose will be provided to maintain each subject's baseline glucose levels.
The euglycemic glucose clamp will be performed by means of a glucose clamp device (ClampArt®; Profil Institut für Stoffwechselforschung, Neuss, Germany). The subject will be connected to the clamp device that will monitor the subject's PG continuously. The device will calculate aggregated PG values every minute. Based on these values, GIR will be calculated every minute using the algorithm implemented into the device and glucose will be administered automatically by the device to keep the PG concentration of the subject constant at a pre-determined target level. Approximately 2 mL of blood per hour will be sampled for glucose monitoring by ClampArt®/the clamp device. […]

The mark [5] stands for this setting: single oral dose prior to IV glucose.
[6] abbreviates: after 10 days of 30, 60 or 120 mg QD.

For `C[C@H](NC(=O)c1cnc(C#N)c(-c2cc(F)cc(F)c2)c1N1CC[C@H](N)C1)C(F)(F)F` [Compound 1, 4-[(3S)-3-aminopyrrolidin-1-yl]-6-cyano-5-(3,5-difluorophenyl)-N-[(2S)-1,1,1-trifluoropropan-2-yl]pyridine-3-carboxamide], the “% reduction in insulin AUC” value in experiment [1] (27 mg dose) is reported as “about 22%”; in experiment [1] (60 mg dose), “about 40%”; in experiment [1] (120 mg dose), “about 47%”. Besides, the “Insulin secretion in IVGTT” value in experiment [1] (setting [5]) was “dose-dependently suppressed insulin secretion”. Also, in experiment [1] (setting [5]), the “Plasma glucose in IVGTT” value is “rapid and sustained increase in plasma glucose levels”. Also, the “Increase in plasma glucose AUC in MMTT” value in experiment [2] (30 mg QD) is given as about 30%; in experiment [2] (60 mg QD), about 30%; in experiment [2] (120 mg QD), about 60%. The “Insulin and C-peptide in MMTT” value in experiment [2] (30-120 mg QD) is “more sustained suppression of insulin and C-peptide with increasing dose”. Moreover, in experiment [3], the “Fasting insulin and C-peptide levels” value is “suppressed”. For the same compound, the Fasting plasma glucose result in experiment [3] is reported as “dose-dependent increase in fasting plasma glucose”. Moreover, the “Plasma glucose during sulfonylurea challenge” value in experiment [4] (120 mg cohort, Day 10) was “mild elevation of plasma glucose”. Besides, the “Effect on sulfonylurea-induced hyperinsulinism” value in experiment [4] (setting [6]) is given as “reversed sulfonylurea-induced hyperinsulinism”. The “Need for IV glucose support (glucose infusion rate)” value in experiment [4] (setting [6]) is “eliminating the need for IV glucose support”. In addition, the “Insulin and C-peptide levels during sulfonylurea challenge” value in experiment [4] (day 10, all cohorts) was “suppressed”.
